25 compounds from patent publication US6916923B2 (Hoffmann-La Roche Inc., priority 1999, dated 2005) can be followed below.

The target of test [1] is T1, Recombinant active human Cyclin E/CDK2 complexes (Homo sapiens, UniProt P24941).
T1 construct: made in house; host or cells: insect cells
In words: CDK2 FlashPlate Assay (inhibition of Rb phosphorylation). In kind it is biochemical. Particulars: Cyclin E/CDK2, Rb substrate, 33P-ATP, 25 minutes at room temperature; read-out: Inhibition of Cdk2 - IC50 Range. As for the experimental part:
To determine inhibition of CDK2 activity, purified recombinant retinoblastoma (Rb) protein was coated on 96 well FlashPlates (New England Nuclear, Boston, Mass.). Rb is a natural substrate for phosphorylation by CDK2 (Herwig and Strauss Eurr. J. Biochem., Vol. 246 (1997) pp. 581-601 and references therein). Recombinant active human Cyclin E/CDK2 complexes were partially purified from extracts of insect cells. The active Cyclin E/CDK2 was added to the Rb-coated FlashPlates along with ^33P-ATP and dilutions of test compounds. Plates were incubated for 25 minutes at room temperature with shaking, then washed and counted in the Topcount scintillation counter (Packard Instrument Co., Downers Grove, Ill.). Dilutions of test compounds were tested in duplicate in each assay. The percent inhibition of Rb phosphorylation, which is a measure of the inhibition of CDK2 activity, was determined according to the following formula: [formula] where “test compound” refers to the average counts per minute of the test duplicates, “nonspecific” refers to the average counts per minute when no Cyclin E/CDK2 was added, and “total” refers to the average counts per minute when no compound was added.

Test [2] relates to colon carcinoma line HCT-116. The test can be described thus: HCT-116 cell-based antiproliferative (MTT) assay. The following applies: Homo sapiens, HCT-116, 96 h, 1000 cells per well, 4 days post addition of test compound, read-out: Antiproliferative Activity HCT 116 (colon) Assay - IC50 Range. As for the experimental part:
(§1) The estrogen receptor negative epithelial breast carcinoma line (MDA-MB-435) was purchased from American Type Cell Culture Collection (ATCC; Rockville, Md.) and was grown in the medium recommended by ATCC. For analysis of the effect of the test compounds on growth of these cells, the cells were plated at 2000 cells per well in a 96-well tissue culture plate, and were incubated overnight at 37° C. with 5% CO2. The next day, the test compounds were dissolved in 100% dimethyl sulfoxide (DMSO) to yield a 10 mM stock solution. Each compound was diluted with sterile medium to 1 mM in a sufficient quantity to yield a final concentration of 120 μM. The compounds were then serially diluted in medium with 1.2% DMSO. One-fourth final volume of the diluted compounds was transferred to 96 well plates. Test compounds were assayed in duplicate. DMSO was added to a row of “control cells” such that the final concentration of DMSO in each well was 0.3%. Wells to which no cells were added served as the “blank.” Wells to which no inhibitor was added served as “no inhibitor control”. The plates were returned to the incubator, and 5 days post addition of test compound, were analyzed as described below.
(§2) 3-(4,5-Dimethylthiazole-2-yl)-2,5-diphenyl-2H-tetrazolium bromide (thiazolyl blue; MTT) was added to each well to yield a final concentration of 1 mg/mL. The plates were then incubated at 37° C. for 3 hours. The plates were centrifuged at 1000 rpm for 5 minutes prior to aspiration of the MTT-containing medium. The MTT-containing medium was then removed and 100 μL 100% ethanol was added to each well to dissolve the resulting formazan metabolite. To ensure complete dissolution, plates were shaken for 15 minutes at room temperature. Absorbencies were read in a microtiter plate reader (Molecular Dynamics) at a wavelength of 570 nm with a 650 nm reference. Percent inhibition was calculated by subtracting the absorbance of the blank (no cell) wells from all wells, then subtracting the division of the average absorbance of each test duplicate by the average of the controls from 1.00. Inhibitory concentrations (IC50) were determined from the linear regression of a plot of the logarithm of the concentration versus the percent inhibition.
(§3) The colon adenocarcinoma line SW480 and the colon carcinoma line HCT-116 also were obtained from the ATCC and were tested according to the same protocol provided above for MDA-MB435 cell based assay with the following modifications. Cell line SW480 was plated at 1000 cells per well and analyzed at 6 days post addition of the test compound. Cell line HCT-116 was plated at 1000 cells per well and analyzed at 4 days post addition of test compound.

Test [3] concerns colon adenocarcinoma line SW480. The test can be described thus: SW480 cell-based antiproliferative (MTT) assay. Particulars: Homo sapiens, SW480, 144 h, 1000 cells per well, 6 days post addition of test compound, read-out: Antiproliferative Activity SW480 (colon) Assay - IC50 Range. The method, then:
as §1, §2, §3

Test [4] relates to estrogen receptor negative epithelial breast carcinoma line (MDA-MB-435). In words: MDA-MB-435 cell-based antiproliferative (MTT) assay. Particulars: Homo sapiens, MDA-MB-435, 120 h, 2000 cells per well, 5 days post addition of test compound, read-out: Antiproliferative Activity of MDA-MB435 (breast) Assay - IC50 Range. The method, then: as §1, §2

As for `c1ccc(C2=Nc3c[nH]nc3Nc3ccccc32)cc1` [Compound A9, 5-phenyl-pyrazolo[3,4][1,4]benzodiazepine], the IC50 was 1000 to 9990 nM in test [1], 10000 to 30000 nM in test [2] and 10000 to 30000 nM in test [3].
`CS(=O)(=O)c1ccc2c(c1)C(c1ccccc1)=Nc1c[nH]nc1N2` [Compound A14, 5-phenyl-7-methanesulfonyl-pyrazolo[3,4][1,4]benzodiazepine]: the concentration for half-maximal inhibition (IC50) lay in the range of 1000 to 9990 nM in test [1] and 10000 to 30000 nM in test [2].
Taken in the same sequence, the figures for `O=[N+]([O-])c1ccc2c(c1)C(c1ccccc1)=Nc1c[nH]nc1N2` [Compound A16, 5-phenyl-7-nitro-pyrazolo[3,4][1,4]benzodiazepine] were 10 to 990 nM and 10000 to 30000 nM.
For the compound `COc1ccc2c(c1)C(c1ccccc1Cl)=Nc1c(n[nH]c1C)N2` [Compound B18, 3-methyl-5-(2-chlorophenyl)-7-methoxy-pyrazolo[3,4][1,4]benzodiazepine], the half-inhibitory concentration (IC50) in test [1] was 10 to 990 nM; in test [3] it was 1100 to 9990 nM; in test [4], 1100 to 9990 nM.
For `Cc1[nH]nc2c1N=C(c1ccccc1)c1cc(Cl)ccc1N2` [Compound B19, 3-methyl-5-phenyl-7-chloro-pyrazolo[3,4][1,4]benzodiazepine], the IC50 in test [1] was 10 to 990 nM; in test [3], 1100 to 9990 nM; in test [4], 1100 to 9990 nM.
Consider `Cc1[nH]nc2c1N=C(c1ccccc1Cl)c1cc(Cl)ccc1N2` [Compound B20, 3-methyl-5-(2-chlorophenyl)-7-chloro-pyrazolo[3,4][1,4]benzodiazepine], for which the IC50 in test [1] lay within 10 to 990 nM; in test [3], 1100 to 9990 nM; in test [4], 1100 to 9990 nM.
Take `Cc1[nH]nc2c1N=C(c1ccccc1F)c1ccccc1N2` [Compound B21, 3-methyl-5-(2-fluorophenyl)-pyrazolo[3,4][1,4]benzodiazepine]: the IC50 in test [1] lay within 10 to 990 nM; in test [3], 10 to 1000 nM; in test [4], 1100 to 9990 nM.
Take `Cc1[nH]nc2c1N=C(c1ccccc1)c1cc(F)ccc1N2` [Compound B22, 3-methyl-5-phenyl-7-fluoro-pyrazolo[3,4][1,4]benzodiazepine]: the values for the half-inhibitory concentration (IC50) in test [1], in test [3] and in test [4] were 10 to 990 nM, 1100 to 9990 nM and 10 to 1000 nM, respectively.
The matching figures for `Cc1[nH]nc2c1N=C(c1ccccc1F)c1cc(I)ccc1N2` [Compound B29, 3-methyl-5-(2-fluorophenyl)-7-iodo-pyrazolo[3,4][1,4]benzodiazepine]: 10 to 990 nM, 1100 to 9990 nM and 10 to 1000 nM.
The matching figures for `Cc1[nH]nc2c1N=C(c1ccccc1Cl)c1ccccc1N2` [Compound B30, 3-methyl-5-(2-chlorophenyl)-pyrazolo[3,4][1,4]benzodiazepine]: 10 to 990 nM, 1100 to 9990 nM and 1100 to 9990 nM.
The matching figures for `Cc1[nH]nc2c1N=C(c1ccccc1F)c1cc([N+](=O)[O-])ccc1N2` [Compound B31, 3-methyl-5-(2-fluorophenyl)-7-nitro-pyrazolo[3,4][1,4]benzodiazepine]: 10 to 990 nM, 10 to 1000 nM and 10 to 1000 nM.
On to `N#Cc1ccc2c(c1)C(c1ccccc1F)=Nc1c(n[nH]c1CO)N2` [Compound B35, 3-hydroxymethyl-5-(2-fluorophenyl)-pyrazolo[3,4][1,4]-benzodiazepine-7-carbonitrile], for which the results for the 50% inhibitory concentration (IC50) in test [1], in test [3] and in test [4] were 10 to 990 nM, 10 to 1000 nM and 10 to 1000 nM, respectively.
As for `O=C(NCCO)c1ccc2c(c1)C(c1ccccc1F)=Nc1c[nH]nc1N2` [Compound C2, N-(2-hydroxyethyl)-5-(2-fluorophenyl)-pyrazolo[3,4][1,4]benzodiazepine-7-carboxamide], the IC50 in test [1] lay in the range of 10 to 990 nM; in test [2], 10000 to 30000 nM.
Take `Cc1[nH]nc2c1N=C(c1ccccc1Cl)c1cc(N)ccc1N2` [Compound C4]: the IC50 lay in the range of 10 to 990 nM in test [1], 10 to 1000 nM in test [3] and 10 to 1000 nM in test [4].
Take `CC(=O)Nc1ccc2c(c1)C(c1ccccc1Cl)=Nc1c(n[nH]c1C)N2` [Compound C7, N-(3-methyl-5-(2-chlorophenyl)-pyrazolo[3,4][1,4]benzodiazepin-7-yl)-acetamide]: the IC50 in test [1] fell in the range of 10 to 990 nM; in test [3], 10 to 1000 nM; in test [4], 10 to 1000 nM.
Consider `C=CC(=O)Nc1ccc2c(c1)C(c1ccccc1Cl)=Nc1c(n[nH]c1C)N2` [Compound C8, N-(3-methyl-5-(2-chlorophenyl)-pyrazolo[3,4][1,4]benzodiazepin-7-yl)-2-propenamide], for which the 50% inhibitory concentration (IC50) in test [1] is 10 to 990 nM; in test [3] it was 10 to 1000 nM; in test [4], 10 to 1000 nM.
On to `Cc1[nH]nc2c1N=C(c1ccccc1Cl)c1cc(NS(C)(=O)=O)ccc1N2` [Compound C9, N-(3-methyl-5-(2-chlorophenyl)-pyrazolo[3,4][1,4]benzodiazepin-7-yl)-methanesulfonamide], for which the IC50 in test [1] lay in the range of 10 to 990 nM; in test [3] it was 10 to 1000 nM; in test [4], 10 to 1000 nM.
Take `NC(=O)c1[nH]nc2c1N=C(c1ccccc1Cl)c1cc([N+](=O)[O-])ccc1N2` [Compound C10, 5-(2-chlorophenyl)-7-nitro-pyrazolo[3,4][1,4]benzodiazepine-3-carboxamide]: the half-inhibitory concentration (IC50) in test [1] was in the range of 10 to 990 nM; in test [4], 10000 to 30000 nM.
Taken in the same sequence, the figures for `O=Cc1[nH]nc2c1N=C(c1ccccc1Cl)c1cc([N+](=O)[O-])ccc1N2` [Compound C13, 5-(2-chlorophenyl)-7-nitro-pyrazolo[3,4][1,4]benzodiazepine-3-carboxaldehyde] were 10 to 990 nM and 10 to 1000 nM.
Regarding `O=[N+]([O-])c1ccc2c(c1)C(c1ccccc1Cl)=Nc1c(n[nH]c1CO)N2` [Compound C14, 3-hydroxymethyl-5-(2-chlorophenyl)-7-nitro-pyrazolo[3,4][1,4]benzodiazepine], the IC50 in test [1] fell in the range of 10 to 990 nM; in test [3], 10 to 1000 nM; in test [4], 10 to 1000 nM.
Consider `COCc1[nH]nc2c1N=C(c1ccccc1Cl)c1cc([N+](=O)[O-])ccc1N2` [Compound C16, 3-methoxymethyl-5-(2-chlorophenyl)-7-nitro-pyrazolo[3,4][1,4]benzodiazepine], for which the IC50 in test [1] fell in the range of 10 to 990 nM; in test [4], 1100 to 9990 nM.
The matching figures for `C=Cc1[nH]nc2c1N=C(c1ccccc1Cl)c1cc([N+](=O)[O-])ccc1N2` [Compound C17, 3-ethenyl-5-(2-chlorophenyl)-7-nitro-pyrazolo[3,4][1,4]benzodiazepine]: 10 to 990 nM and 10 to 1000 nM.
On to `N#Cc1[nH]nc2c1N=C(c1ccccc1Cl)c1cc([N+](=O)[O-])ccc1N2` [Compound C18, 5-(2-chlorophenyl)-7-nitro-pyrazolo[3,4][1,4]benzodiazepine-3-carbonitrile], for which the figures for the IC50 in test [1] and in test [4] were 10 to 990 nM and 10000 to 30000 nM, respectively.
In the case of `CSc1ccc(-c2[nH]nc3c2N=C(c2ccccc2Cl)c2cc([N+](=O)[O-])ccc2N3)cc1` [Compound D11], the half-maximal inhibitory concentration (IC50) in test [1] was in the range of 10 to 990 nM; in test [2] it was 10000 to 30000 nM.
Taken in the same sequence, the figures for `O=[N+]([O-])c1ccc2c(c1)C(c1ccccc1)=Nc1c(n[nH]c1C1CC1)N2` [Compound D18] were 10 to 990 nM and 10000 to 30000 nM.
